Laboratory results taken from patent US8399444B2, “Bicyclic imidazole as DP1 receptor antagonists” (GlaxoSmithKline Intellectual Property Development Ltd., priority 2008, dated 2013).
“And” between values parts separate entries of the source, which are not always exact repeats. Equal values may be shown once. Where a name gives a salt, the structure may show the parent alone.

Biological target: T1, Prostanoid DP1 receptor (Homo sapiens, UniProt Q13258)
T1 construct: expressed in transfected cells; host or cells: CHO K1
T1 sequence (Q13258 1-359): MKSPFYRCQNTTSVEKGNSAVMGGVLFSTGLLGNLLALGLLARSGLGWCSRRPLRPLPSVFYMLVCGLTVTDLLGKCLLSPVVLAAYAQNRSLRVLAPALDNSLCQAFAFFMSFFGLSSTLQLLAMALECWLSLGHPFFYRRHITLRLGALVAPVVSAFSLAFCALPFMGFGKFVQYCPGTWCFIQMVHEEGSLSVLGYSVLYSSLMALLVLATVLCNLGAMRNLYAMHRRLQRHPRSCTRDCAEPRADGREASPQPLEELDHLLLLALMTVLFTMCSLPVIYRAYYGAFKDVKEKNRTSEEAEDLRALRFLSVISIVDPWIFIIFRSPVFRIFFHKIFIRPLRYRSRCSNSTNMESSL
Experiment: Measurement of cAMP using TR-FRET LANCE assay: Prostanoid DP1
Type: cell-based
Conditions: CHO cells expressing DP1 receptor, antagonism of PGD2 (EC80) cAMP response; read-out: pKi value (converted)
Experimental: CHO K1 cells, stably expressing the Prostanoid DP1 receptor, were maintained in culture in DMEM/F12, supplemented with 5% FBS, 2 mM L-glutamine, 400 μg/mL hygromycin B in 95%: 5% air: CO2 at 37° C. Following harvest from culture, cells were centrifuged at 250 g at 4° C. for 10 minutes and re-suspended in ice cold dialysed FCS. Once the cells were in mono-suspension they were slowly mixed with an equal volume of ice cold 80% dialysed FCS: 20% DMSO (pre-mixed and chilled several hours earlier). The cells were then aliquoted into 1 mL tubes within a 96 well block (pre-cooled to 4° C.). Once sealed, the tubes were frozen in a controlled rate freezer. The frozen cells were then transferred to a −140° C. freezer for long term storage.
Measurement of cAMP Using TR-FRET LANCE™ Assays: Prostanoid DP1
The potency of the compounds were determined using a LANCE™ cAMP assay kit as per the kit instructions. Briefly, CHO cells expressing DP1 receptor were thawed at 37° C., diluted in PBS and centrifuged at 1000 RPM for 5 minutes. Cells were then re-suspended (2 million cells/mL) in stimulation buffer (HBSS containing 0.01% BSA, 500 μM FAC IBMX, 5 mmol/L HEPES adjusted to pH 7.4 with KOH.
Briefly, cells were added (10,000 cells/well at 5 μL addition) to low volume white Greiner polypropylene 384-well plate assay plates containing 0.1 μl test compound. Following a 15 minute incubation at room temperature, 5 μl of antibody solution (stimulation buffer containing Alexia fluor 647) containing PGD2 at twice the determined EC80 concentration was added. Plates were incubated for a further 30 minutes at room temperature then detection mixture was added (kit components; detection buffer, europiumW8044-labelled streptavidin and biotin cAMP at 10 μl/well). Plates were covered and incubated the room temperature for 1 hour before reading on a Viewlux Microplate Imager using TR-FRET label settings.
All compounds were dissolved in DMSO at a concentration of 10 mM and were prepared in 100% DMSO using a 1 in 4 dilution step to provide 11-point concentration—response curves. The dilutions were transferred to the assay plates ensuring that the DMSO concentration was constant across the plate at 1% for all assays.
All data were normalised to the mean of 16 high and 16 low control wells on each plate. A four parameter curve fit of the following form was then applied.
Where a is the minimum, b is the Hill slope, c is the XC50, and d is the maximum. Data are presented as the mean pXC50 (negative log 10 of the molar XC50) with the standard deviation (SD) of number of tests in the experiments.

Row | Ki | Compound
1 | ≤ 10 nM | CC(C)c1nc2c(n1Cc1ccc(Cl)c(Cl)c1)C(CC(=O)O)CCCC2 (centres unmarked) [Example 3, [3-[(3,4-dichlorophenyl)methyl]-2-(1-methylethyl)-3,4,5,6,7,8-hexahydrocyclohepta[d]imidazol-4-yl]acetic acid ammonia salt]
2 | ≤ 100 nM | CC(C)c1nc2c(n1Cc1ccc(Cl)cc1)C(CC(=O)O)CCC2 (centres unmarked) [Example 27, [1-[(4-chlorophenyl)methyl]-2-(1-methylethyl)-4,5,6,7-tetrahydro-1H-benzimidazol-7-yl]acetic acid ammonia salt]
3 | ≤ 100 nM | CC(C)c1nc2c(n1Cc1ccc(Cl)c(Cl)c1)C(OCC(=O)O)CCCC2 (single isomer, unassigned; isomer 1) [Example 36, {[3-[(3,4-dichlorophenyl)methyl]-2-(1-methylethyl)-3,4,5,6,7,8-hexahydrocyclohepta[d]imidazol-4-yl]oxy}acetic acid ammonia salt (Isomer 1)]
4 | ≤ 100 nM | O=C(O)CC1CCCc2nc(C3CCCC3)n(Cc3ccc(Cl)cc3)c21 (centres unmarked) [Example 22, {1-[(4-chlorophenyl)methyl]-2-cyclopentyl-4,5,6,7-tetrahydro-1H-benzimidazol-7-yl}acetic acid ammonia salt]
5 | ≤ 100 nM | CC(C)(C)c1nc2c(n1Cc1ccc(Cl)cc1)C(CC(=O)O)CCC2 (centres unmarked) [Example 23, [1-[(4-chlorophenyl)methyl]-2-(1,1-dimethylethyl)-4,5,6,7-tetrahydro-1H-benzimidazol-7-yl]acetic acid, formic acid salt]
6 | ≤ 100 nM | CC(C)c1nc2c(n1Cc1ccc(Cl)c(Cl)c1)C(CC(=O)O)CCCC2 (single isomer, unassigned; isomer 2) [Example 5, [3-[(3,4-dichlorophenyl)methyl]-2-(1-methylethyl)-3,4,5,6,7,8-hexahydrocyclohepta[d]imidazol-4-yl]acetic acid (isomer 2)]
7 | ≤ 100 nM | CC(C)c1nc2c(n1Cc1ccc(Cl)c(Cl)c1)C(CC(=O)O)CC2 (single isomer, unassigned; isomer 2) [Example 11, [3-[(3,4-dichlorophenyl)methyl]-2-(1-methylethyl)-3,4,5,6-tetrahydrocyclopenta[d]imidazol-4-yl]acetic acid ammonia salt (Isomer 2)]
8 | ≤ 10 nM | CC(C)c1nc2c(n1Cc1ccc(Cl)cc1)C(CC(=O)O)CCCC2 (centres unmarked) [Example 1, [3-[(4-chlorophenyl)methyl]-2-(1-methylethyl)-3,4,5,6,7,8-hexahydrocyclohepta[d]imidazol-4-yl]acetic acid]
9 | ≤ 10 nM | CC(C)c1nc2c(n1Cc1ccc(Cl)cc1)C(OCC(=O)O)CCC2 (single isomer, unassigned; isomer 2) [Example 26, {[1-[(4-chlorophenyl)methyl]-2-(1-methylethyl)-4,5,6,7-tetrahydro-1H-benzimidazol-7-yl]oxy}acetic acid formic acid salt (isomer 2)]
10 | ≤ 100 nM | CC(C)c1nc2c(n1Cc1ccc(Cl)cc1)C(OCC(=O)O)CCC2 (centres unmarked) [Example 24, {[1-[(4-chlorophenyl)methyl]-2-(1-methylethyl)-4,5,6,7-tetrahydro-1H-benzimidazol-7-yl]oxy}acetic acid, formic acid salt]
11 | ≤ 100 nM | CC(C)c1nc2c(n1Cc1ccc(Cl)cc1)C(OCC(=O)O)CCCC2 (centres unmarked) [Example 2]
12 | ≤ 10 nM | CC(C)c1nc2c(n1Cc1ccc(Cl)c(Cl)c1)C(CC(=O)O)CCC2 (centres unmarked) [Example 29, [1-[(3,4-dichlorophenyl)methyl]-2-(1-methylethyl)-4,5,6,7-tetrahydro-1H-benzimidazol-7-yl]acetic acid trifluoroacetic acid salt]
13 | ≤ 10 nM | CC(C)(C)c1nc2c(n1Cc1ccc(Cl)cc1)C(CC(=O)O)CCCC2 (centres unmarked) [Example 6, [3-[(4-chlorophenyl)methyl]-2-(1,1-dimethylethyl)-3,4,5,6,7,8-hexahydrocyclohepta[d]imidazol-4-yl]acetic acid]
14 | ≤ 10 nM | CC(C)c1nc2c(n1Cc1ccc(Cl)c(Cl)c1)C(OCC(=O)O)CCCC2 (single isomer, unassigned; isomer 2) [Example 37, {[3-[(3,4-dichlorophenyl)methyl]-2-(1-methylethyl)-3,4,5,6,7,8-hexahydrocyclohepta[d]imidazol-4-yl]oxy}acetic acid ammonia salt (Isomer 2)]
15 | ≤ 100 nM | CC(C)c1nc2c(n1Cc1ccc(Cl)c(Cl)c1)C(OCC(=O)O)CCCC2 (centres unmarked) [Example 35, {[3-[(3,4-dichlorophenyl)methyl]-2-(1-methylethyl)-3,4,5,6,7,8-hexahydrocyclohepta[d]imidazol-4-yl]oxy}acetic acid hydrochloride]
16 | ≤ 10 nM | CC(C)c1nc2c(n1Cc1ccc(Cl)cc1)C(CC(=O)O)CCC2 (single isomer, unassigned; isomer 2) [Example 32, (−)-[1-[(4-chlorophenyl)methyl]-2-(1-methylethyl)-4,5,6,7-tetrahydro-1H-benzimidazol-7-yl]acetic acid (Isomer 2)]
17 | ≤ 10 nM | CC(C)c1nc2c(n1Cc1ccc(Cl)c(Cl)c1)C(CC(=O)O)CC2 (centres unmarked) [Example 9, [3-[(3,4-dichlorophenyl)methyl]-2-(1-methylethyl)-3,4,5,6-tetrahydrocyclopenta[d]imidazol-4-yl]acetic acid ammonia salt]
18 | ≤ 100 nM and ≤ 10 nM and ~2.51 nM | CC(C)c1nc2c(n1Cc1ccc(Cl)c(Cl)c1)[C@@H](CC(=O)O)CCC2 [Example 40, [(7R)-1-[(3,4-dichlorophenyl)methyl]-2-(1-methylethyl)-4,5,6,7-tetrahydro-1H-benzimidazol-7-yl]acetic acid]
19 | ≤ 100 nM | CC(C)c1nc2c(n1Cc1ccc(Cl)cc1Cl)C(CC(=O)O)CCC2 (centres unmarked) [Example 18, [1-(2,4-dichlorobenzyl)-2-isopropyl-4,5,6,7-tetrahydro-1H-benzimidazol-7-yl]acetic acid ammonia salt]
20 | ≤ 100 nM | CC(C)c1nc2c(n1[C@H](C)c1ccc(Cl)cc1)C(CC(=O)O)CCC2 (stereo partly drawn) [Example 33, [1-[(1R)-1-(4-chlorophenyl)ethyl]-2-(1-methylethyl)-4,5,6,7-tetrahydro-1H-benzimidazol-7-yl]acetic acid ammonia salt]
21 | ≤ 10 nM | CC(C)c1nc2c(n1Cc1ccc(Cl)c(Cl)c1)C(CC(=O)O)CCC2 (centres unmarked) [Example 19, [1-[(3,4-dichlorophenyl)methyl]-2-(1-methylethyl)-4,5,6,7-tetrahydro-1H-benzimidazol-7-yl]acetic acid]
22 | ≤ 10 nM | CC(C)c1nc2c(n1Cc1ccc(Cl)c(Cl)c1)C(CC(=O)O)CCCC2 (single isomer, unassigned; isomer 1) [Example 4, (+)-[3-[(3,4-dichlorophenyl)methyl]-2-(1-methylethyl)-3,4,5,6,7,8-hexahydrocyclohepta[d]imidazol-4-yl]acetic acid (isomer 1)]
23 | ≤ 100 nM | CC(C)c1nc2c(n1[C@H](C)c1ccccc1)C(CC(=O)O)CCC2 (stereo partly drawn) [Example 31, {2-(1-methylethyl)-1-[(1R)-1-phenylethyl]-4,5,6,7-tetrahydro-1H-benzimidazol-7-yl}acetic acid ammonia salt]
24 | ≤ 100 nM | CC(C)c1nc2c(n1Cc1ccc(Cl)cc1)C(CC(=O)O)CC2 (centres unmarked) [Example 7, [3-[(4-chlorophenyl)methyl]-2-(1-methylethyl)-3,4,5,6-tetrahydrocyclopenta[d]imidazol-4-yl]acetic acid ammonia salt]
25 | ≤ 100 nM and ≤ 10 nM and ~2 nM | CC(C)c1nc2c(n1Cc1ccc(Cl)c(Cl)c1)C(CC(=O)O)CCC2 (single isomer, unassigned; isomer 2) [Example 20, (−)-[1-[3,4-dichlorophenyl)methyl]-2-(1-methylethyl)-4,5,6,7-tetrahydro-1H-benzimidazol-7-yl]acetic acid ammonia salt (Isomer 2)]
26 | ≤ 10 nM | CC(C)c1nc2c(n1Cc1ccc(Cl)cc1)C(CC(=O)O)CCC2 (single isomer, unassigned; isomer 2) [Example 17, (−)-[1-[(4-chlorophenyl)methyl]-2-(1-methylethyl)-4,5,6,7-tetrahydro-1H-benzimidazol-7-yl]acetic acid ammonia salt (Isomer 2)]
